Laboratory results reported in PMC4764904 (Scientific Reports, 2016).
Marks after values point to notes of the source that are not given here. Where a SMILES comes first, the peptide text is derived from it. Where no end group is shown, it is not given here. [ ]: non-standard residue; d: D form. The star is where a group is joined. Fmoc = O=C(OCC1c2ccccc2-c2ccccc21)*

Assays:
human GALR2 = target: T1, human GALR2 (Homo sapiens, UniProt O43603); assay: SRE-luc reporter assay, GALR2;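 also: luciferase activity read in cell lysates after exposure to rising peptide concentrations, EC50 being the agonist level giving half-maximal stimulation from a sigmoidal nonlinear regression fit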; type: cell-based; conditions: HEK293-Gqi cells transfected with SRE-luc and human GALR2; 6 h ligand treatment; mean ± S.E. of at least three independent experiments; NM = not measurable; read-out: GALR2 EC50
T1 construct: host or cells: HEK293 cells stably expressing Gαqi
T1 sequence (O43603 1-387): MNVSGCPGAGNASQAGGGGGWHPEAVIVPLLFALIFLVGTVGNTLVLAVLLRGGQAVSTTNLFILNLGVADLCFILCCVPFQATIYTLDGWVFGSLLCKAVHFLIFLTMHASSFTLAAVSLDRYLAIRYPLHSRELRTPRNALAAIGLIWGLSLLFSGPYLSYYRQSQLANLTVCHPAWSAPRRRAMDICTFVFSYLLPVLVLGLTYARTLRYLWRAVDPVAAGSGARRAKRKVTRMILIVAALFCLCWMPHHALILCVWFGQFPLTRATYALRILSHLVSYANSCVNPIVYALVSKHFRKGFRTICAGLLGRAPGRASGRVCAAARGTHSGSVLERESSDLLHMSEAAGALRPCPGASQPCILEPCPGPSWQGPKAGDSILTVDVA
Procedure: (§4) The generated mutant SPX peptides were incubated with cells expressing GALR2 and GALR3. […] The activities of the receptors were traced using the serum-response element-driven luciferase (SRE-luc) assay system.
(§5) The SRE-luc reporter vector and plasmid containing human GALR1, GALR2, or GALR3 were transfected into HEK293 cells that stably expressed Gqi protein. Cells were then treated with increasing concentrations of mutant peptides, and the receptor activities were determined using the SRE-luc reporter system.
(§6) HEK293 cells stably expressing Gαqi, which mediates Gαi-coupled receptor activation by stimulating Gαq-dependent signaling pathways[59], were maintained in Dulbecco’s modified Eagle’s medium (DMEM) supplemented with 10% FBS, 100 U/ml penicillin G, and 100 μg/ml streptomycin (Invitrogen). Cells were seeded in 48-well plates at a density of 2 × 10^4 cells per well, one day before transfection. A mixture containing 75 ng of the SRE-luc reporter construct, 75 ng of expression plasmid, and 2 μl of Effectene reagent (Qiagen, Chatsworth, CA, USA) was prepared and added to each well according to the manufacturer’s instructions. Cells were then maintained in serum-free DMEM for 16–18 h before treatment with the ligands. Approximately 48 h after transfection, cells were treated with the respective ligands for 6 h. Cells were lysed by the addition of 100 μl lysis buffer. The luciferase activity in 50 μl of cell extract was determined by a luciferase assay system according to the standard protocol for the Synergy 2 Multi-Mode Microplate Reader (BioTek, Winooski, VT, USA).
(§7) For in vitro studies data analysis was performed by nonlinear regression with a sigmoidal dose-response. The agonist concentrations that induced half-maximal stimulation (EC50) or half-maximal inhibition of binding (IC50) were calculated with GraphPad PRISM4 software (GraphPad Software Inc., San Diego, CA, USA). […] All data are presented as mean ± S.E. of at least three independent experiments and a P value of P < 0.05 was considered statistically significant.

human GALR3 = target: T2, human GALR3 (Homo sapiens, UniProt O60755); assay: SRE-luc reporter assay, GALR3;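 also: luciferase activity read in cell lysates across rising peptide concentrations, EC50 being the agonist concentration giving half-maximal stimulation from a sigmoidal nonlinear fit, Gαqi routing Gi-coupled receptor signaling through Gq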; type: cell-based; conditions: HEK293-Gqi cells transfected with SRE-luc and human GALR3; 6 h ligand treatment; mean ± S.E. of at least three independent experiments; NM = not measurable; read-out: GALR3 EC50
T2 construct: host or cells: HEK293 cells stably expressing Gαqi
T2 sequence (O60755 1-368): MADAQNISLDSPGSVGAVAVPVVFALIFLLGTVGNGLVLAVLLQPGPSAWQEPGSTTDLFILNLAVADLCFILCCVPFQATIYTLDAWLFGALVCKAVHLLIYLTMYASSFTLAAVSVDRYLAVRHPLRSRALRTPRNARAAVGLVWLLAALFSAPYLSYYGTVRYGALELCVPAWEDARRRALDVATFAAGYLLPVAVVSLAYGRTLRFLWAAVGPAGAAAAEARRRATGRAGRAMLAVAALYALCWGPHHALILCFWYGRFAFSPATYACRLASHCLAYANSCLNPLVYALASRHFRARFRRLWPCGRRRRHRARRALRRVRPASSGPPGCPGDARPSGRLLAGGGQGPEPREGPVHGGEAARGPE
Procedure: as §4, §5, §6, §7

[1] = Peptide stability in FBS by residual IP3 production; type: in vitro ADME, bovine; conditions: peptide 1 μM in 100% FBS, 37 °C, 0, 3, 6, 12, 24, 48, 72 h; residual activity read as IP3 production ([3H]-inositol) in HEK293 cells expressing GALR2; mean ± S.E., at least three independent experiments
Procedure: (§1) To investigate the effects of the modifications on proteolytic susceptibility, the functional activity of peptides that were incubated in 100% serum at 37 °C for 0, 3, 6, 12, 24, 48, and 72 h was determined via inositol 1,4,5-triphosphate (IP3) production in GALR2-expressing cells (Fig. 4A–C and Table 3). […] In addition, dAla4 and dGln14 substitutions contribute to longer longevity of the peptide in serum. In an additional experiment, we examined the degradation rates of the Qu mutant, as well as the Qu mutant with an N-terminal modification and/or dAla4 and dGln14 substitutions.
(§2) Figure 4 Stability of SPX mutants in the presence of FBS (A) Qu analogs in FBS (B) and human serum (C). Potency of Qu mutants toward GALR2 (D) and GALR3 (E). For stability of SPX mutants, peptides (1 μM) were incubated in serum for 0, 3, 6, 12, 24, 48, and 72 hrs. The remaining activities of the peptides were determined by measuring IP3 production by HEK293 cells that express GALR2 after the indicated times. IP3 production was expressed as percent change, where 100% indicates IP3 production by WT SPX incubated in FBS or human serum for 0 h. For potency of Qu mutants toward GALR2 and GALR3, the SRE-luc reporter vector and plasmid containing human GALR2 or GALR3 were transfected into HEK293 cells that stably expressed Gqi protein. Cells were then treated with increasing concentrations of mutant peptides, and the receptor activities were determined using the SRE-luc reporter system.
(§3) To evaluate the stability of SPX and its analogs in FBS or human serum, peptides were incubated at an initial concentration of 1 μM in 100% serum at 37 °C for 0, 3, 6, 12, 24, 48, and 72 hours. Residual peptide activity was then assessed by measuring IP3 in HEK293 cells expressing GALR2. For the IP3 assay, cells were seeded in 12-well plates at a density of 2.5 × 10^5 cells per well, and then the next day, cells were transiently transfected with 1 μg/well of plasmid containing GALR2 using the Lipofectamine 2000 (Invitrogen) transfection reagent. The day following transfection, cells were incubated in M199 media containing 1% FBS, 1% L-glutamine, 1% penicillin/streptomycin, and 1 μCi/well of myo-^3H inositol for 20 h. After a 30-min incubation in buffer A (140 mM NaCl, 20 mM Hepes, 4 mM KCl, 8 mM D-glucose, 1 mM MgCl2, 1 mM CaCl2, 1 mg/ml free fatty acid bovine serum albumin (BSA), and 10 mM LiCl at pH 7.2), cells were treated with the agonist for 40 min at 37 °C. Media was removed, and the reactions were terminated by addition of 1 ml of 10 mM cold formic acid to each well. The plates were stored at 4 °C for 30 min, and the extracts were then transferred into 6-ml plastic tubes containing 500 μl AG1–8X anion exchange columns (BIO-RAD). The tubes were gently mixed with a vortexer, and the supernatants were removed by aspiration. Two washes with 1 ml of distilled water were performed followed by two additional washes with 60 mM ammonium formate/5mM sodium tetraborate. Tritiated inositol was separated from the column by elution with 1 ml of 1 M ammonium formate/0.1 M formic acid, and 800 μl from the elution were taken from each tube and transferred into 6-ml scintillation vials. Then, 2 ml of scintillation cocktail solution (Ultima Gold^TM, Perkin Elmer, Waltham MA, USA) was added to each sample. The radioactivity of [^3H]-myo-inositol samples was measured using a TRI carb 3100TR liquid scintillation analyzer (Packard).

[2] = Peptide stability in human serum by residual IP3 production; type: in vitro ADME; conditions: peptide 1 μM in 100% human serum, 37 °C, 0, 3, 6, 12, 24, 48, 72 h; residual activity read as IP3 production ([3H]-inositol) in HEK293 cells expressing GALR2; mean ± S.E., at least three independent experiments
Procedure: as §1, §2, §3

Row | Compound | EC50 (human GALR2) [µM] | EC50 (human GALR3) [µM] | Half-life activity (h) in FBS [1] | Half-life activity (h) in Human Serum [2]
1 | NWTPNAALYLFGPQ-NH2 [N5A7F11P13(Qu)] | 0.055 ± 0.00924 | > 10 | 2.6 ± 0.2 h | 2.0 ± 0.2 h
2 | CC(C)C[C@H](NC(=O)[C@H](C)NC(=O)[C@H](C)NC(=O)[C@H](CC(N)=O)NC(=O)[C@@H](C)NC(=O)[C@@H](NC(=O)[C@H](Cc1c[nH]c2ccccc12)NC(=O)[C@H](CC(N)=O)NC(=O)OCC1c2ccccc2-c2ccccc21)[C@@H](C)O)C(=O)N[C@@H](Cc1ccc(O)cc1)C(=O)N[C@@H](CC(C)C)C(=O)N[C@@H](Cc1ccccc1)C(=O)NCC(=O)N1CCC[C@H]1C(=O)N[C@H](CCC(N)=O)C(N)=O [Fmoc-Qu-dA4-dQ14] (Fmoc-NWT[dA]NAALYLFGP[dQ]-NH2) |  |  | 11.8 ± 0.2 ^a h | 8.8 ± 0.2 ^a h
